In patent US12240838B2, “Inhibiting agents for Bruton's tyrosine kinase” (BIOGEN MA INC., priority 2019, dated 2025):

Tests used:
[1] = molecular target: T1, BTK (Homo sapiens (Human), UniProt Q06187); assay: In Vitro BTK Kinase Assay: BTK-POLYGAT-LS ASSAY; type: biochemical; details: ATP 10 μM, polyGAT 100 nM, BTK 0.25 nM, 30 minutes
Description: The purpose of the BTK in vitro assay is to determine compound potency against BTK through the measurement of IC50. […] The BTK kinase reaction was done in a black 96 well plate (costar 3694). For a typical assay, a 24 μL aliquot of a ATP/peptide master mix (final concentration; ATP 10 μM, polyGAT 100 nM) in kinase buffer (10 mM Tris-HCl pH 7.5, 10 mM MgCl2, 200 μM […], 5 mM DTT, 0.01% Triton X-100, and 0.2 mg/ml casein) is added to each well. Next, […] of a 4-fold, 40× compound titration in 100% DMSO solvent is added, followed by adding 15 μL of BTK enzyme mix in 1× kinase buffer (with a final concentration of 0.25 nM). The assay is incubated for 30 minutes before being stopped with […] of a 50 mM EDTA solution. Aliquots (5 μL) of the kinase reaction are transferred to a low volume white 384 well plate (Coming 3674), and […] of a 2× detection buffer (Invitrogen PV3574, with 4 nM Tb-PY20 antibody, Invitrogen PV3552) is added. The plate is covered and incubated for 45 minutes at room temperature. Time resolved fluorescence (TRF) on Molecular Devices M5 (332 nm excitation; 488 nm emission; 518 nm fluorescein emission) is measured.

[2] = molecular target: T1, BTK; assay: In Vitro PD Assay in Human Whole Blood (pBTK assay); type: cell-based; details: 37° C. for 30 min, 50% inhibition of ECL signal
Description: Human heparinized venous blood was purchased from Bioreclamation, Inc. or SeraCare Life Sciences and shipped overnight. Whole blood was aliquoted into 96-well plate and “spiked” with serial dilutions of test compound in DMSO or with DMSO without drug. The final concentration of DMSO in all wells was 0.1%. The plate was incubated at 37° C. for 30 min. Lysis buffer containing protease and phosphatase inhibitors was added to the drug-containing samples and one of the DMSO-only samples (+PPi, high control), while lysis buffer containing protease inhibitors was added to the other DMSO-only samples (−PPi, low control). All of the lysed whole blood samples were subjected to the total BTK capture and phosphotyrosine detection method described in US20160311802, incorporated herein by reference.

T1 sequence (Q06187 whole entry): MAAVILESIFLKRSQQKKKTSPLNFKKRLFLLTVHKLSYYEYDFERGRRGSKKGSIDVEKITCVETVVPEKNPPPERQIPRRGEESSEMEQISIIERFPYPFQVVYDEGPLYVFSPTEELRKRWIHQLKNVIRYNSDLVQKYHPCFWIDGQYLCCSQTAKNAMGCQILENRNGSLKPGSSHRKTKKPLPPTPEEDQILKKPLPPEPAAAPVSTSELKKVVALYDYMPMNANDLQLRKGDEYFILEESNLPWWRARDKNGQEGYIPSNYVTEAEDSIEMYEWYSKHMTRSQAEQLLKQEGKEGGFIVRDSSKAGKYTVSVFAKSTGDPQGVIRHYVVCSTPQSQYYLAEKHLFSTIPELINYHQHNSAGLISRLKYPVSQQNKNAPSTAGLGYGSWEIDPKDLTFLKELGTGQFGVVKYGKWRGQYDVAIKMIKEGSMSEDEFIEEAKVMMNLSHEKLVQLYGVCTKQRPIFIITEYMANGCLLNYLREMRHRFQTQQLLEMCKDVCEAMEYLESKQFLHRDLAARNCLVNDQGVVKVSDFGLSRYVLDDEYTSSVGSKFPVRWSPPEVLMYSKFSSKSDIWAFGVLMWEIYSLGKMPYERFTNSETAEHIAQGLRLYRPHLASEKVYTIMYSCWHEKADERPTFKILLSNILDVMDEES

Cc1c(CNC(=O)c2nn(C(C)(C)C)cc2F)ccc(-c2ccnc(NC(=O)C3CC3)c2)c1F [Compound 31, 1-(tert-butyl)-N-(4-(2-(cyclopropanecarboxamido)pyridin-4-yl)-3-fluoro-2-methylbenzyl)-4-fluoro-1H-pyrazole-3-carboxamide]
IC50 [1]: ≤ 1 nM
IC50 [2]: 500 to 10000 nM

CC(C)(C)c1nc(C(=O)NCc2cc(F)c(-c3ccnc(NC(=O)C4CC4)c3)cc2Cl)no1 [Compound 104, 5-(tert-butyl)-N-(2-chloro-4-(2-(cyclopropanecarboxamido)pyridin-4-yl)-5-fluorobenzyl)-1,2,4-oxadiazole-3-carboxamide]
IC50 [1]: ≤ 1 nM
IC50 [2]: 100 to 500 nM

CC(C)(C)c1nc(C(=O)NCc2ccc(-c3ccnc(NC(=O)C4CC4)c3)c(F)c2Cl)no1 [Compound 14, 5-(tert-butyl)-N-(2-chloro-4-(2-(cyclopropanecarboxamido)pyridin-4-yl)-3-fluorobenzyl)-1,2,4-oxadiazole-3-carboxamide]
IC50 [1]: ≤ 1 nM
IC50 [2]: ≤ 100 nM

Cc1cc(-c2ccnc(NC(=O)[C@H]3C[C@@H]3C)c2)ccc1CNC(=O)c1noc(C(C)(C)C)n1 [Compound 5, 5-(tert-butyl)-N-(2-methyl-4-(2-((1S,2S)-2-methylcyclopropane-1-carboxamido)pyridin-4-yl)benzyl)-1,2,4-oxadiazole-3-carboxamide]
IC50 [1]: ≤ 1 nM
IC50 [2]: ≤ 100 nM

Cc1cc(-c2ccnc(NC(=O)C3CC3)c2)ccc1CNC(=O)c1nc(C(C)(C)CF)no1 [Compound 39, N-(4-(2-(cyclopropanecarboxamido)pyridin-4-yl)-2-methylbenzyl)-3-(1-fluoro-2-methylpropan-2-yl)-1,2,4-oxadiazole-5-carboxamide]
IC50 [1]: ≤ 1 nM
IC50 [2]: 100 to 500 nM

CC(C)(C)c1noc(C(=O)N[C@@H]2CCCCc3cc(-c4ccnc(NC(=O)[C@@H]5CC5(C)C)c4)ccc32)n1 [Compound 45, 3-(tert-butyl)-N-((R)-2-(2-((R)-2,2-dimethylcyclopropane-1-carboxamido)pyridin-4-yl)-6,7,8,9-tetrahydro-5H-benzo[7]annulen-5-yl)-1,2,4-oxadiazole-5-carboxamide]
IC50 [1]: 1 to 10 nM
IC50 [2]: > 10000 nM

Cc1cc(-c2cc(NC(=O)C3CC3)ncc2F)ccc1[C@@H](C)NC(=O)c1noc(C(C)(C)C)n1 [Compound 20, (R)-5-(tert-butyl)-N-(1-(4-(2-(cyclopropanecarboxamido)-5-fluoropyridin-4-yl)-2-methylphenyl)ethyl)-1,2,4-oxadiazole-3-carboxamide]
IC50 [1]: ≤ 1 nM
IC50 [2]: ≤ 100 nM

Cc1c(CNC(=O)c2noc(C(C)(C)C)n2)ccc(-c2ccnc(NC(=O)C3CC3)c2)c1F [Compound 11, 5-(tert-butyl)-N-(4-(2-(cyclopropanecarboxamido)pyridin-4-yl)-3-fluoro-2-methylbenzyl)-1,2,4-oxadiazole-3-carboxamide]
IC50 [1]: ≤ 1 nM
IC50 [2]: ≤ 100 nM

C[C@@H](NC(=O)c1nc(C(C)(C)C)no1)c1ccc(-c2ccnc(NC(=O)C3CC3)c2)cc1Cl [Compound 91, (R)-3-(tert-butyl)-N-(1-(2-chloro-4-(2-(cyclopropanecarboxamido)pyridin-4-yl)phenyl)ethyl)-1,2,4-oxadiazole-5-carboxamide]
IC50 [1]: ≤ 1 nM
IC50 [2]: 100 to 500 nM

CC(C)c1cc(-c2ccnc(NC(=O)C3CC3)c2)ccc1CNC(=O)c1noc(C(C)(C)C)n1 [Compound 56, 5-(tert-butyl)-N-(4-(2-(cyclopropanecarboxamido)pyridin-4-yl)-2-isopropylbenzyl)-1,2,4-oxadiazole-3-carboxamide]
IC50 [1]: 1 to 10 nM
IC50 [2]: > 10000 nM

Cc1c(CNC(=O)c2nc(C(C)(C)C)no2)ccc(-c2ccnc(NC(=O)C3CC3)c2)c1F [Compound 94, 3-(tert-butyl)-N-(4-(2-(cyclopropanecarboxamido)pyridin-4-yl)-3-fluoro-2-methylbenzyl)-1,2,4-oxadiazole-5-carboxamide]
IC50 [1]: ≤ 1 nM
IC50 [2]: ≤ 100 nM

CC1(c2nc(C(=O)NCc3ccc(-c4ccnc(NC(=O)C5CC5)c4)c(F)c3Cl)no2)CC1 [Compound 59, N-(2-chloro-4-(2-(cyclopropanecarboxamido)pyridin-4-yl)-3-fluorobenzyl)-5-(1-methylcyclopropyl)-1,2,4-oxadiazole-3-carboxamide]
IC50 [1]: ≤ 1 nM
IC50 [2]: 500 to 10000 nM

CC(C)(C)c1noc(C(=O)NCc2ccc(-c3ccnc(NC(=O)C4CC4)c3)c(F)c2Cl)n1 [Compound 15, 3-(tert-butyl)-N-(2-chloro-4-(2-(cyclopropanecarboxamido)pyridin-4-yl)-3-fluorobenzyl)-1,2,4-oxadiazole-5-carboxamide]
IC50 [1]: ≤ 1 nM
IC50 [2]: ≤ 100 nM

Cc1cc(-c2ccnc(NC(=O)[C@@H]3C[C@H]3C)c2)ccc1CNC(=O)c1noc(C(C)(C)C)n1 [Compound 6, 5-(tert-butyl)-N-(2-methyl-4-(2-((1R,2R)-2-methylcyclopropane-1-carboxamido)pyridin-4-yl)benzyl)-1,2,4-oxadiazole-3-carboxamide]
IC50 [1]: ≤ 1 nM
IC50 [2]: ≤ 100 nM

Cc1cc(-c2ccnc(NC(=O)C3CC3(F)F)c2)ccc1CNC(=O)c1noc(C(C)(C)C)n1 (stereo not drawn) [Compound 49, 5-(tert-butyl)-N-(4-(2-(2,2-difluorocyclopropane-1-carboxamido)pyridin-4-yl)-2-methylbenzyl)-1,2,4-oxadiazole-3-carboxamide]
IC50 [1]: ≤ 1 nM
IC50 [2]: 500 to 10000 nM

Cc1cc(-c2ccnc(NC(=O)C3CC3(C)C)c2)ccc1CNC(=O)c1noc(C(C)(C)C)n1 (stereo not drawn) [Compound 48, 5-(tert-butyl)-N-(4-(2-(2,2-dimethylcyclopropane-1-carboxamido)pyridin-4-yl)-2-methylbenzyl)-1,2,4-oxadiazole-3-carboxamide]
IC50 [1]: 1 to 10 nM
IC50 [2]: > 10000 nM

CC(C)(C)c1nc(C(=O)NCc2ccc(-c3ccnc(NC(=O)C4CC4)c3)cc2C(F)(F)F)no1 [Compound 16, 5-(tert-butyl)-N-(4-(2-(cyclopropanecarboxamido)pyridin-4-yl)-2-(trifluoromethyl)benzyl)-1,2,4-oxadiazole-3-carboxamide]
IC50 [1]: ≤ 1 nM
IC50 [2]: 100 to 500 nM

Cc1cc(-c2ccnc(NC(=O)C3CC3)c2)ccc1CNC(=O)c1noc(C(C)(C)CF)n1 [Compound 41, N-(4-(2-(cyclopropanecarboxamido)pyridin-4-yl)-2-methylbenzyl)-5-(1-fluoro-2-methylpropan-2-yl)-1,2,4-oxadiazole-3-carboxamide]
IC50 [1]: ≤ 1 nM
IC50 [2]: 500 to 10000 nM

CC(C)(C)c1noc(C(=O)N[C@@H]2CCCCc3cc(-c4ccnc(NC(=O)[C@@H]5C[C@H]5C(F)(F)F)c4)ccc32)n1 [Compound 52, 3-(tert-butyl)-N-((R)-2-(2-((1R,2R)-2-(trifluoromethyl)cyclo-propane-1-carboxamido)pyridin-4-yl)-6,7,8,9-tetrahydro-5H-benzo[7]annulen-5-yl)-1,2,4-oxadiazole-5-carboxamide]
IC50 [1]: ≤ 1 nM
IC50 [2]: 500 to 10000 nM

CCc1cc(-c2ccnc(NC(=O)C3CC3)c2)ccc1CNC(=O)c1noc(C(C)(C)C)n1 [Compound 73, 5-(tert-butyl)-N-(4-(2-(cyclopropanecarboxamido)pyridin-4-yl)-2-ethylbenzyl)-1,2,4-oxadiazole-3-carboxamide]
IC50 [1]: ≤ 1 nM
IC50 [2]: 500 to 10000 nM

Cc1c(-c2ccnc(NC(=O)C3CC3)c2)ccc(CNC(=O)c2noc(C(C)(C)C)n2)c1F [Compound 101, 5-(tert-butyl)-N-(4-(2-(cyclopropanecarboxamido)pyridin-4-yl)-2-fluoro-3-methylbenzyl)-1,2,4-oxadiazole-3-carboxamide]
IC50 [1]: ≤ 1 nM
IC50 [2]: 500 to 10000 nM

Cc1cc(-c2ccnc(NC(=O)C3CC3)c2)ccc1CNC(=O)c1ccn(C(C)(C)C)n1 [Compound 99, 1-(tert-butyl)-N-(4-(2-(cyclopropanecarboxamido)pyridin-4-yl)-2-methylbenzyl)-1H-pyrazole-3-carboxamide]
IC50 [1]: 1 to 10 nM
IC50 [2]: 500 to 10000 nM

Cc1cc(-c2ccnc(NC(=O)C3(F)CC3)c2)ccc1CNC(=O)c1noc(C(C)(C)C)n1 [Compound 82, 5-(tert-butyl)-N-(4-(2-(1-fluorocyclopropane-1-carboxamido)pyridin-4-yl)-2-methylbenzyl)-1,2,4-oxadiazole-3-carboxamide]
IC50 [1]: 1 to 10 nM
IC50 [2]: 500 to 10000 nM

Cc1c([C@@H](C)NC(=O)c2noc(C(C)(C)C)n2)ccc(-c2ccnc(NC(=O)C3CC3)c2)c1F [Compound 71, (R)-5-(tert-butyl)-N-(1-(4-(2-(cyclopropanecarboxamido)pyridin-4-yl)-3-fluoro-2-methyphenyl)ethyl)-1,2,4-oxadiazole-3-carboxamide]
IC50 [1]: ≤ 1 nM
IC50 [2]: 500 to 10000 nM
